We go through one compound from patent publication US7786041B2, “Synergistic crop plant-compatible herbicidal compositions comprising herbicides from the group of the benzoylcyclohexanediones” (priority 2005, dated 2010).

Each structure is given as a SMILES string.

For series [1], the system named is corn. As to the kind of experiment: Post-emergence damage to corn, second test series. The note with it: in vivo. The procedure: (§1) Seeds of monocotyledonous and dicotyledonous weed and crop plants are placed into sandy loam in wood fiber pots or in plastic pots, covered with soil and cultivated in a greenhouse, including during the vegetation period outdoors outside of the greenhouse, under good growth conditions. 2-3 weeks after sowing, the test plants are treated at the one- to three-leaf stage. The test compounds, formulated as wettable powders (WP) or liquid (EC) are, in various dosages with a water application rate of 300 l/ha (converted), with added wetting agent (0.2 to 0.3%), sprayed onto the plants and the surface of the soil. 3 to 4 weeks after the treatment of the test plants, the effect of the preparations is rated visually in comparison to untreated controls (herbicidal effect in percent (%): 100% effect=plants have died, 0% effect=like control plants).
(§2) In a second test series, the herbicidal action and the damage to corn of the compositions according to the invention (A+Bx+C1) was compared to that of the herbicide alone (A) and to that of a herbicidal composition (A+C1) known from the prior art.

The test system of series [2] is harmful plants Abutilon theophrasti, Ambrosia elatior, Digitaria sanguinalis, Echinochloa crus galli, Pharbitis purpureum, Fallopia convolvulus, Setaria …. Put plainly: Herbicidal post-emergence action, second test series, mean over ten harmful plants. The class given is in vivo. The note with it: Table 5, mean value of the herbicidal actions against ten harmful plants, each herbicide 200 g of a.i./ha, safener C1 100 g of a.i./ha. The procedure: as §1, §2

In series [1], `CS(=O)(=O)c1ccc(C(=O)C2C(=O)CCCC2=O)c(Cl)c1COCC(F)(F)F` [A] returned a Damage to corn of 11%. In series [2], this compound came in with a Herbicidal action of 86%.
